This experiment deals with seeds of wheat. As for the experimental part: Different levels of silicic acid were tested on seeds and in pot experiments to assess their effects on improvement of seed and the growth and yield in wheat.

With silicic acid, for the setting “0.25% and 0.50% silicic acid application, all the varieties of wheat”, the “plant growth and yield” value was “highest”. Also, the rate of germination entry (silicic acid applied at 0.25-0.50% level, wheat seeds) is “increased”.

The record behind these values is patent publication US9756861B2, “Micro-colloidal silicic acid / boric acid composition and a method of preparing a bioenhancing solution and powder” (Barlaa B.V., priority 2009, dated 2017).
